The numbers were not newly measured in US5688981A, “Ethylenediaminetriacetic acid and N-acyl ethylenediaminetriacetic acid silver chelating agents and surfactants” (Hampshire Chemical Corp., priority 1996, dated 1997), which cites them from elsewhere.

The test system of data set [1] is protein.
For data set [2] the following is noted: background.

With `[Ag][I]` [silver iodide], in data set [1], the “concentration with propensity towards protein precipitation” value (“concentration” below) was 10^-4 M.

For `O=[N+]([O-])[O-].[Ag+]` [silver nitrate], the “toxicity on oral administration” value in data set [2] is on record as “can cause severe gastroenteritis which may be fatal”.

On to `O=C([O-])CC(O)(CC(=O)[O-])C(=O)[O-].[Ag+].[Ag+].[Ag+]` [silver citrate], for which the “concentration” value in data set [1] is given as 10^-4 M.

Consider `[Ag+].[Ag+].[O-2]` [silver oxide], for which the “concentration” value in data set [1] was 10^-4 M.

In the case of `CC(O)C(=O)[O-].[Ag+]` (centres unmarked) [silver lactate], the “concentration” value in data set [1] was 10^-4 M.
